# From patent US7148014B2, “Methods of inhibiting phagocytosis” (University of Pennsylvania, priority 1993, dated 2006)
# Columns and labels:
# [1] = tested on: FcγRIIA mediated phagocytosis in monocytes; test: Phagocytosis of IgG-sensitized RBCs (EA) by cultured monocytes treated with ODN-liposome complexes; type: cell-based, human; details: for phagocytic index (PI): untreated PI 220±8.8
# Procedure: Monocytes (1×10^5 cells/ml) were incubated with complexes of 4 μg/ml of LIPOFECTAMINE and ODNs (1.0 μM each of the linear control or the linear Syk antisense ODNs, or 0.2 μM each of the stem-loop control or the stem-loop Syk antisense ODN) for 2 days, and the phagocytosis of IgG-sensitized red blood cells (EA) was examined. Phagocytic index (PI)=number of ingested RBCs/100 cells. Each bar represents the mean±SEM of three separate experiments.
# (§1) Antisense or scrambled control ODNs were modified to be protected from nucleases. One phosphodiester backbone at the 5-prime terminus and two at the 3-prime terminus were modified with phosphorothioate. Prediction of secondary structures of Syk mRNA (Law et al, J. Biol. Chem. 269:12310 (1994)) and ODNs were carried out with the MacDNASIS program (Hitachi Software, San Bruno, Calif.) on a Macintosh computer. Linear 17 mer Syk antisense ODN, having the sequence of 5′-[…]-3′ (SEQ ID NO:9), targets the area surrounding the translation initiation codon of Syk mRNA. Stem-loop Syk antisense ODN is a 57 mer containing sequences complementary to three different target sites, target I (the area of the translation initiation, nucleotide no. 159 to 173) , target II (451 to 463) , and target III (802 to 816) of Syk mRNA (Law et al, J. Biol. Chem. 269:12310 (1994)) (FIG. 5). The stem-loop Syk antisense ODN forms a stem and loop structure by itself and was designed to contain minimal intramolecular secondary structures in the loop domain (FIG. 6) . The sequence of the stem-loop Syk antisense ODN is 5′ - […] C-3′ (SEQ ID NO:10). Linear 17 mer control ODN has a random sequence of 5′-[…]-3′ (SEQ ID NO:11). Stem-loop 61 mer control ODN has a random sequence of 5′ -[…]- 3′ (SEQ ID NO:12) within the loop domain. The linear and stem-loop control ODNs were also modified at both the 5-prime and 3-prime termini by phosphorothioates. Preparation of liposomes: One μg each of the control scrambled phosphodiester ODNs, the linear and stem-loop Syk antisense ODNs in 50 μl of PBS were incubated with 4 μg (2 μl) of LIPOFECTAMINE™ (GIBCO BRL, Life Technologies, Inc. Gaithersburg, Md.). The ODN-liposome complexes were allowed to form at the room temperature for 45 min. Monocytes isolation and culture: Peripheral blood mononuclear cells from healthy individuals were isolated by a standard adherence procedure (Darby et al, J. Immunol. 152:5429 (1994)). Briefly, the heparinized blood was centrifuged on Ficoll-Hypaque (Lymphocyte Separation Medium; Organon Teknika, Durham, N.C.) and interface cells were washed twice in PBS. Mononuclear cells were resuspended in complete medium containing RPMI 1640 (GIBCO BRL, Life Technologies, Inc. Gaithersburg, Md.) with 10% heat-inactivated FCS and 2 mM L-glutamine. Cells were allowed to adhere at 37° C. onto tissue culture flasks precoated with FCS. After 45 to 90 min non-adherent cells were removed with extensive washing in HBSS. Cells were harvested by vigorous agitation. The yield of monocytes ranged from 2–6×10^7 cells/500 ml of blood. Monocytes were routinely more than 98% viable judged by trypan blue exclusion. Isolated monocytes were maintained in RPMI 1640 supplemented with L-glutamine (2 mM) and 10% heat-inactivated FCS at 37° C. with 5% CO2. Oligodeoxynucleotides treatment of cells. 1×10^5 Monocytes were incubated with ODN-liposome complexes containing 2 μg/ml of LIPOFECTAMINE and 0.5 μM of the linear control, 0.5 μM of the linear Syk antisense ODN or 0.1 μM of the stem-loop control, 0.1 μM of the stem-loop Syk antisense ODN in 0.3 ml of RPMI 1640 medium without FCS in a 24-well plate (Falcon; Becton Dickinson Labware, Lincoln Park, N.J.) at 37° C. for 4 h. Medium was added to a 1 ml final volume with RPMI 1640 containing 10% FCS and cells were then incubated at 37° C. for 2 days. […]
# [2] = Stability of antisense ODNs to serum nucleases; type: in vitro ADME; details: for resistance to serum nucleases: modified with phosphorothioate
# [3] = tested on: Syk mRNA; test: RT-PCR / Southern hybridization of Syk mRNA in monocytes; type: cell-based, human; details: 2 days
# Procedure: FIG. 8. Effect of Syk antisense ODNs on Syk mRNA in monocytes. Total RNA was isolated from monocytes (1×10^5 cells/ml) treated with complexes of 4 μg/ml of LIPOFECTAMINE and the ODNs (1.0 μM each of the linear control or the linear Syk antisense ODN, or 0.2 μM each of the stem-loop control or the stem-loop Syk antisense ODN) for 2 days, and cDNA was synthesized from total RNA with random hexanucleotide primers. PCR was performed with Syk cDNA as templates with two Syk primers (Syk-H and Syk-M). PCR products were analyzed by Southern hybridization and hybridized bands were visualized by chemiluminescent detection reagents.
# as §1, with “PBS.” for “PBS. Mononuclear cells were resuspended in complete medium containing RPMI 1640 (GIBCO BRL, Life Technologies, Inc. Gaithersburg, Md.) with 10% heat-inactivated FCS and 2 mM L-glutamine. Cells were allowed to adhere at 37° C. onto tissue culture flasks precoated with FCS. After 45 to 90 min non-adherent cells were removed with extensive washing in HBSS. Cells were harvested by vigorous agitation. The yield of monocytes ranged from 2–6×10^7 cells/500 ml of blood. Monocytes were routinely more than 98% viable judged by trypan blue exclusion. Isolated monocytes were maintained in RPMI 1640 supplemented with L-glutamine (2 mM) and 10% heat-inactivated FCS at 37° C. with 5% CO2. Oligodeoxynucleotides treatment of cells. 1×10^5 Monocytes were incubated with ODN-liposome complexes containing 2 μg/ml of LIPOFECTAMINE and 0.5 μM of the linear control, 0.5 μM of the linear Syk antisense ODN or 0.1 μM of the stem-loop control, 0.1 μM of the stem-loop Syk antisense ODN in 0.3 ml of RPMI 1640 medium without FCS in a 24-well plate (Falcon; Becton Dickinson Labware, Lincoln Park, N.J.) at 37° C. for 4 h. Medium was added to a 1 ml final volume with RPMI 1640 containing 10% FCS and cells were then incubated at 37° C. for 2 days.”
# [4] = tested on: COS-1 cells transfected with FcγRIIIA-α/γ; test: Binding (rosetting) of EA by transfected COS-1 cells; type: cell-based
# Procedure: (§2) FcγRIIIA isoforms, FcγRIIIA-γγ, FcγRIIIA-ζζ, were generated by cotransfection of COS-1 cells with cDNA of γ or ζ as well as cDNA of α. Transfections of cDNAs were carried out with a modified DEAE-Dextran method. Briefly, 300,000 COS-1 cells were seeded on 35 mm well plates 24 hours prior to transfection. Plates of 70 to 80% confluence were washed twice and incubated for 30 minutes with Dulbeco's Modification of Eagle's Medium (DMEM, Gibco BRL, Grand Island, N.Y.) before transfection. Four μg of plasmid DNA (0.5 μg/μl) was slowly added to 1 ml of a transfection buffer containing Nu medium (DMEM with 10% of NuSerum [Collaborative Biomedical, Two Oak Park, Bedford, Mass.], 1 mg/ml of DEAE Dextran and 100 μM chloroquine. The transfection buffer containing DNA was added to COS-1 cells with incubation for 4 hours at 37° C. Cells were then shocked with 10%. DMSO in phosphate buffered saline (PBS) for 2 minutes, washed twice with DMEM and grown in NuSerum supplemented DMEM. Cells were studied 48 hours following transfection.
# (§3) Binding and pragocytosis of IgG-sensitized RSCs (EA): Sterile sheep red blood cells (10^9/ml) in calcium and magnesium-free PBS were sensitized by incubation with an equal volume of a subagglutinating titer of rabbit anti-sheep RBC antibody (Cappel Laboratories, Cochranville, Pa.). The IgG-sensitized RBCs (EA) were washed twice with PBS and resuspended to a final concentration of 10^9/ml for overlaying on transfected COS-1 cells. Cells were examined for rosetting (>10 EA per COS-1 cell) and phagocytosis as described previously (Indik et al, J. Clin. Invest. 88:A66 (1991)). For the analysis of phagocytosis, COS-1 cells bound with EA (after three washings) were subjected to a brief hypotonic shock (35 seconds) with hypotonic PBS to remove surface bound EA. The cells were then stained with Wright-Giemsa staining solutions, and phagocytosis (ingested EA) was determined by light microscopy. Results obtained were analyzed by Student's T-test.
# [5] = tested on: COS-1 cells transfected with FcγRIIIA-α/γ; test: Phagocytosis of IgG-sensitized RBCs (EA) by transfected COS-1 cells; type: cell-based; details: for phagocytic activity restored after washing: pretreated 400 μM
# Procedure: as §2, §3
# [6] = ODN 0.2 μM, LIPOFECTAMINE complexes, 2 days
# [7] = ODN 1 μM, LIPOFECTAMINE complexes, 2 days
compound,measurement,setting,value
"5′ - GGGGGGGCTGTCAGCCATGCCGTGTCTTGTCTTTGTCGCTTCTTGAGGAGCCCCCC C-3′ (SEQ ID NO:10) (antisense GGGGGGGCTGTCAGCCATGCCGTGTCTTGTCTTTGTCGCTTCTTGAGGAGCCCCCCC; DNA, backbone and methylation of C not given here; stem-loop hairpin, phosphorothioates at both termini, further chemistry not fully specified) [stem-loop Syk antisense ODN, 57 mer stem-loop ODN complementary to three target sites of human Syk mRNA, phosphorothioate-modified termini]",reduction of the phagocytic signal compared with a mixture of three linear antisense oligonucleotides,[1],more dramatically
same,reduction in phagocytosis (phagocytic index),[1]; [6],89%
same,phagocytic index (PI),[1]; [6],24±4.2
same,stability when complexed with liposomes,[2]; complexed with liposomes,markedly improved
same,resistance to serum nucleases,[2],partial resistance
same,stability in serum,[2]; with phosphorothioate modifications,exceptional stability
same,effect on Syk mRNA,[3]; ODN 0.2 μM,completely eliminated
"5′ -ATGGAATCATCTTGGGCATTCATTCGTTCCTCAAAGAAGAATATGAA- 3′ (SEQ ID NO:12) (listed as DNA, chemistry not given here) [stem-loop control, Stem-loop 61 mer scrambled control ODN]",effect on FcγRIIA mediated phagocytosis,[1]; ODN 0.2 μM,did not significantly affect
same,effect on Syk mRNA,[3]; ODN 0.2 μM,did not reduce
"5′-CGCTGTCAGCCATGCCG-3′ (SEQ ID NO:9) (DNA, backbone and methylation of C not given here; phosphorothioate linkages at both 5' and 3' termini, further chemistry not fully specified) [linear Syk antisense ODN, Linear 17 mer, phosphorothioate-modified termini, targets area surrounding translation initiation codon of human Syk mRNA]",Phagocytosis reduced by (phagocytic index),[1]; [7],49%
same,phagocytic index (PI),[1]; [7],113±12.3
same,resistance to serum nucleases,[2],partial resistance
same,effect on Syk mRNA,[3]; ODN 1.0 μM,substantially reduced
"5′-GCCCAAGATGATTCCAG-3′ (SEQ ID NO:11) (phosphorothioate linkages at both termini, number not given here) [linear control]",effect on FcγRIIA mediated phagocytosis,[1]; ODN 1 μM,did not significantly affect
same,effect on Syk mRNA,[3]; ODN 1.0 μM,did not reduce
"N#CC(C#N)=Cc1ccc(O)c(O)c1 [Tyr23, tyrphostin 23]",effect on binding of EA,[4],did not affect
same,Rosetting (% Cells),[4]; Tyr23 25 μM,52 ± 9 % Cells
same,Rosetting (% Cells),[4]; Tyr23 50 μM,52 ± 8 % Cells
same,Rosetting (% Cells),[4]; Tyr23 100 μM,49 ± 7 % Cells
same,Rosetting (% Cells),[4]; Tyr23 200 μM,47 ± 5 % Cells
same,Rosetting (% Cells),[4]; Tyr23 400 μM,48 ± 3 % Cells
same,Rosetting (% Cells),[4]; Tyr23 400 μM + washing,44 ± 6 % Cells
same,PI (Phagocytic Index),[5]; Tyr23 25 μM,68 ± 4
same,PI (Phagocytic Index),[5]; Tyr23 50 μM,26 ± 7
same,PI (Phagocytic Index),[5]; Tyr23 100 μM,16 ± 6
same,PI (Phagocytic Index),[5]; Tyr23 200 μM,1.2 ± 1
same,PI (Phagocytic Index),[5]; Tyr23 400 μM,0
same,PI (Phagocytic Index),[5]; Tyr23 400 μM + washing (3 hr wash),63 ± 7
same,IC50,"[5]; dose dependent, p<0.01, read-out: concentration giving 50% inhibition of phagocytosis",25 µM
same,concentration giving complete inhibition of phagocytosis,[5]; p<0.01,200 to 400 µM
same,phagocytic activity restored after washing,[5]; 3 hr wash,partially
same,phagocytic activity restored after washing,[5]; overnight wash (data not shown),completely
same,viability of transfectants on inhibition of phagocytosis,[5]; pretreated with 400 μM followed by washing,not associated with reduction in viability
